Assays:
PBPK model parameters = test: PBPK model parameters; parameters: species or system human
Blood‐to‐plasma ratio = format: in vitro ADME; settings: PBPK input
CYP1A2 [1] = target: T1, CYP1A2 (Homo sapiens, UniProt P05177); test: Metabolic stability in recombinant human CYP1A2 with NADPH; format: in vitro ADME; settings: CYP1A2 share of CYP metabolism, scaled by abundance and ISEF
T1 sequence (P05177 1-516): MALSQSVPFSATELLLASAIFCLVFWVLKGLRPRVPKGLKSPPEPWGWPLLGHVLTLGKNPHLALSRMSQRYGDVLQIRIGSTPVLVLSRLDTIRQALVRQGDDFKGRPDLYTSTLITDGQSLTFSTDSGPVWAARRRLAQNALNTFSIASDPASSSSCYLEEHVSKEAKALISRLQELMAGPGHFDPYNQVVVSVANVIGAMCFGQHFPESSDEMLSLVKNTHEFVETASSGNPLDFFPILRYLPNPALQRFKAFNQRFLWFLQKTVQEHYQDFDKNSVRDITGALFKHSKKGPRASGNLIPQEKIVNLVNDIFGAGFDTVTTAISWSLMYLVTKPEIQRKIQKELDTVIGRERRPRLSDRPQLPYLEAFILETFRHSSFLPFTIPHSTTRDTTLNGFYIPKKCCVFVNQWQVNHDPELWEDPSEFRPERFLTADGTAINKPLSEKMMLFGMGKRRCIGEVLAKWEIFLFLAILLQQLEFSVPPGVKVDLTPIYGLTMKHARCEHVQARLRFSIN

[2] = system: human colon adenocarcinoma clone 2 (Caco‐2); test: Caco‐2 apparent permeability; format: in vitro ADME; settings: Caco‐2 cell line
CYP3A4 = CYP3A4 (Homo sapiens, UniProt P08684); test: CYP3A4 inhibition in human liver microsomes; format: in vitro ADME
Chain of CYP3A4 (P08684 whole entry): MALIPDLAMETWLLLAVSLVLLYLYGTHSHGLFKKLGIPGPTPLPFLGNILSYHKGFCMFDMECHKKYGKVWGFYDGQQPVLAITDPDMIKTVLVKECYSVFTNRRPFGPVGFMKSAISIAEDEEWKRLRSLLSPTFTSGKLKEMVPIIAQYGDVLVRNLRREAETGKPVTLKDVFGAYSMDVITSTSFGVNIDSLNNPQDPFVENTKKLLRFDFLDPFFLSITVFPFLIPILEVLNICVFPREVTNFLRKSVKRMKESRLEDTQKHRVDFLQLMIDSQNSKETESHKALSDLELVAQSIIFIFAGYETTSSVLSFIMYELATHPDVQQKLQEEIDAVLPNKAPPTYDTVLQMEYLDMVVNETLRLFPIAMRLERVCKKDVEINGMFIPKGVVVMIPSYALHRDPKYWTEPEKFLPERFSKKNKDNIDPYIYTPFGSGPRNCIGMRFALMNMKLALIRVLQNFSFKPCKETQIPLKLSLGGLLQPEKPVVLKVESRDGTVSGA

recombinant human CYP2A6 = target: T2, recombinant human CYP2A6 (Homo sapiens, UniProt P11509); test: Metabolic stability in recombinant human CYP2A6 with NADPH; format: in vitro ADME; settings: CYP2A6 share of CYP metabolism, scaled by abundance and ISEF
T2 sequence (P11509 1-494): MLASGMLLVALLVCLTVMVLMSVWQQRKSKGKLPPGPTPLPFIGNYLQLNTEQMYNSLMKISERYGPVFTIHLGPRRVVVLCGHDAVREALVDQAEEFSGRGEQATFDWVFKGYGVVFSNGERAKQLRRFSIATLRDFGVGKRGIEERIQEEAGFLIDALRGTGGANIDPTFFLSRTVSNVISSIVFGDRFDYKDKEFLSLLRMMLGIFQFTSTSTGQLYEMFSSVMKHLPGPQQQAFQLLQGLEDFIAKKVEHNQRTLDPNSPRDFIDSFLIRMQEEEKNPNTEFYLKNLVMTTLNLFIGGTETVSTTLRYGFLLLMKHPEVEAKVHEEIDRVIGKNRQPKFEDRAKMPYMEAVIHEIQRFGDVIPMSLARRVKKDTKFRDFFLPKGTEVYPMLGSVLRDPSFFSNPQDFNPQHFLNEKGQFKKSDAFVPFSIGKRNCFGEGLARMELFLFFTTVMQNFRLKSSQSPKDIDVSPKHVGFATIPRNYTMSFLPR

CYP2D6 [3] = target: T3, CYP2D6 (Homo sapiens, UniProt P10635); test: CYP2D6 inhibition in human liver microsomes; format: in vitro ADME
T3 sequence (P10635 whole entry): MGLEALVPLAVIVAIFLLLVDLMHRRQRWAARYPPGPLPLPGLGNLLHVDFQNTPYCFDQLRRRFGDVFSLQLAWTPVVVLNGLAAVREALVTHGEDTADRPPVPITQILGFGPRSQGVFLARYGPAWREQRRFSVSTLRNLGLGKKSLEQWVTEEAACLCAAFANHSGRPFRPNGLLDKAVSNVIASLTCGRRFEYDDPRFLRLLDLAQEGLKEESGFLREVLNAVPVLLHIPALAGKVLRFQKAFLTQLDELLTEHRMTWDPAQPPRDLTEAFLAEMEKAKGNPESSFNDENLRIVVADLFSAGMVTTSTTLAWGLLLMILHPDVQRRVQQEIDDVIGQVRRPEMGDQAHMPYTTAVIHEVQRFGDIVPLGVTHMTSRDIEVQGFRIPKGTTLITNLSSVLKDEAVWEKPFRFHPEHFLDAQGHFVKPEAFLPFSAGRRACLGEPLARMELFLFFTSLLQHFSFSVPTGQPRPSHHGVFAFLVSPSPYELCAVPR

CYP2C9 = CYP2C9 (Homo sapiens, UniProt P11712); settings: main text summary
Chain of CYP2C9 (P11712 whole entry): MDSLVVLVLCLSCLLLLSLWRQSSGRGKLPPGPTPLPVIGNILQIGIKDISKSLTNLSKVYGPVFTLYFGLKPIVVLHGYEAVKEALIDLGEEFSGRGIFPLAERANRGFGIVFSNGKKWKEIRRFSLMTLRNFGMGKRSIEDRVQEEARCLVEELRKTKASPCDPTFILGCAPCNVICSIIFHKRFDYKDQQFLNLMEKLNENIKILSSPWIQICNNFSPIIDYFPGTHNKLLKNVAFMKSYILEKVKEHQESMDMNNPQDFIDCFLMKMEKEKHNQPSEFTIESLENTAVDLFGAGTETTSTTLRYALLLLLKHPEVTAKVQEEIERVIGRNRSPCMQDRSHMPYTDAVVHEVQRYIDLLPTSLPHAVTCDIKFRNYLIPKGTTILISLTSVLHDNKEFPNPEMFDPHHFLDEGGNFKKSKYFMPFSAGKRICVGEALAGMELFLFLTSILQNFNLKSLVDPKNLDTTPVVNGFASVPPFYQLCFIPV

CYP2B6 = test: in vitro; settings: human
BCRP = test: MDCK‐BCRP apparent permeability; format: in vitro ADME, canine; settings: dog
[4] = system: Madin Darby canine kidney–breast cancer resistance protein (BCRP) cell lines; test: MDCK‐BCRP apparent permeability; format: in vitro ADME; settings: MDCK‐BCRP cell line
Human plasma protein = Human plasma protein binding; format: in vitro ADME; settings: PBPK input
[5] = Human plasma protein binding; format: in vitro ADME; settings: human, human plasma
recombinant human CYP2E1 = recombinant human CYP2E1 (Homo sapiens, UniProt P05181); test: Metabolic stability in recombinant human CYP2E1 with NADPH; format: in vitro ADME; settings: CYP2E1 share of CYP metabolism, scaled by abundance and ISEF
Chain of recombinant human CYP2E1 (P05181 whole entry): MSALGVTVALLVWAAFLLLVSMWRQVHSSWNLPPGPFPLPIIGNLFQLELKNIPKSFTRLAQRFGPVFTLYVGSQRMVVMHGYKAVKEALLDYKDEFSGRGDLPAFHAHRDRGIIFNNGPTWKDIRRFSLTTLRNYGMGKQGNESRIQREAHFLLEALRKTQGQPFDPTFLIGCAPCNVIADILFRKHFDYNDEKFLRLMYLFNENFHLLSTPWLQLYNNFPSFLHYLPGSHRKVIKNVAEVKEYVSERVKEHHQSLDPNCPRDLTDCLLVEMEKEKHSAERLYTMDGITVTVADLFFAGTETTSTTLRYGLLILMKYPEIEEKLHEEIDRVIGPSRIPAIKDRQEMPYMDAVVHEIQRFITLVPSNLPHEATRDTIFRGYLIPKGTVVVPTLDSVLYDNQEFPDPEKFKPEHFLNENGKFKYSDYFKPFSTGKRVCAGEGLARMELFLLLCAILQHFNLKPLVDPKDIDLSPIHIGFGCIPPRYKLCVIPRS

[6] = phase I FIH study ref 7; cited from earlier work
CYP2D6 [7] = target: T3, CYP2D6; test: Metabolic stability in recombinant human CYP2D6 with NADPH; format: in vitro ADME; settings: CYP2D6 share of CYP metabolism, scaled by abundance and ISEF
CYP1A2 [8] = target: T1, CYP1A2; settings: main text summary
recombinant human CYP3A5 = recombinant human CYP3A5 (Homo sapiens, UniProt P20815); test: Metabolic stability in recombinant human CYP3A5 with NADPH; format: in vitro ADME; settings: CYP3A5 share of CYP metabolism, scaled by abundance and ISEF
Chain of recombinant human CYP3A5 (P20815 whole entry): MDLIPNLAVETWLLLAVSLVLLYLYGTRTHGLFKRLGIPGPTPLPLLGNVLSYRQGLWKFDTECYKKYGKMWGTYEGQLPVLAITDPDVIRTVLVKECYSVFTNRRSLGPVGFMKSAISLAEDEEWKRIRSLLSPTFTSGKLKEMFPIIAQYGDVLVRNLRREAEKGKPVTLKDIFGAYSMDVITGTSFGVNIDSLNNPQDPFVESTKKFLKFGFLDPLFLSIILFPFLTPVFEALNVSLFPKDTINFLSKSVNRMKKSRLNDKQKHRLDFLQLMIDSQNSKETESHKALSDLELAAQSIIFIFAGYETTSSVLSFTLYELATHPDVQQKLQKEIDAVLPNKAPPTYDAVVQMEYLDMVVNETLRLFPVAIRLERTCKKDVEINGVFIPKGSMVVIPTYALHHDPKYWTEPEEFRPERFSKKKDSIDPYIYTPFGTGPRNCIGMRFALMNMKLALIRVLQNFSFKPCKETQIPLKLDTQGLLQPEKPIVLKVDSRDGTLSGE

CYP2C8 = target: T4, CYP2C8 (Homo sapiens, UniProt P10632); test: CYP2C8 inhibition in human liver microsomes; format: in vitro ADME
T4 sequence (P10632 1-490): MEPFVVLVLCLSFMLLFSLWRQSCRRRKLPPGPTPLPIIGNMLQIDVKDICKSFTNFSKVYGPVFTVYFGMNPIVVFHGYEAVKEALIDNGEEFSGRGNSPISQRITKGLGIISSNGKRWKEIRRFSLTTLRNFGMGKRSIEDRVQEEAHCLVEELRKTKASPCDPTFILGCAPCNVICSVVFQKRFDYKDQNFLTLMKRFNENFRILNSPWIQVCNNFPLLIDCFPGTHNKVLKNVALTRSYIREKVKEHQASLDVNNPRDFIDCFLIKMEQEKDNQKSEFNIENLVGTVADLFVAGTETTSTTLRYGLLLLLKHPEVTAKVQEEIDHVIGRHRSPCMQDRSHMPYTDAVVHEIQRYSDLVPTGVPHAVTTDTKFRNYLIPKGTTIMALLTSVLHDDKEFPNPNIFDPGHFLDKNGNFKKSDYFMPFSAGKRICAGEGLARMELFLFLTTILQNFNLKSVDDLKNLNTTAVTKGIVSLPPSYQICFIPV

## N#C[C@H](C[C@@H]1CCCNC1=O)NC(=O)[C@H](CC1CC1)NC(=O)c1cc2cccc(Cl)c2[nH]1 [Pomotrelvir, pomotrelvir]
PBPK model parameters; PBPK input, set to match the ritonavir DDI study
  fmCYP3A4: 0.25
PBPK model parameters; retrograde model from CL/F
  CYP3A4 CLint (unbound): 0.376 µL/min/pmol
PBPK model parameters; value to match the ritonavir DDI study
  fmCYP3A4: 25%
Blood‐to‐plasma ratio
  B:P: 0.93
CYP1A2 [1]
  Relative Contribution (fm): negligible
[2]
  efflux ratio: large
CYP3A4
  Ki: 34.7 µM
CYP3A4; main text summary
  inhibitory effect on CYP3A4 in vitro (in words): time‐dependent inhibition (TDI)
Recombinant human CYP2A6
  Relative Contribution (fm): negligible
CYP2D6 [3]
  Ki: 25.4 µM
CYP2D6 [3]; main text summary
  inhibitory effect on CYP2D6 in vitro (in words): No inhibitory effect
CYP2C9
  inhibitory effect on CYP2C9 in vitro (in words): weak to moderate inhibition
CYP2B6
  EC50 at 72 h: 4.84 µM
BCRP
  Papp: 1.01 ×10⁻⁶ cm/s
[4]
  efflux ratio: large
Human plasma protein
  Main binding protein: HSA
[5]
  fraction unbound: 0.044
Recombinant human CYP2E1
  Relative Contribution (fm): negligible
[6]
  oral bioavailability: good
  tolerability: well tolerated
CYP2D6 [7]
  Relative Contribution (fm): negligible
CYP1A2 [8]
  inhibitory effect on CYP1A2 in vitro (in words): weak to moderate inhibition
Recombinant human CYP3A5
  Relative Contribution (fm): negligible
Following oral dosing, thought to contribute
  contribution of nonhepatic, presystemic hydrolysis to apparent clearance: ~ 50%
Oral dose of 300 mg administered with food (FIH study)
  CL/F (mean apparent oral clearance): 33.19 L/h
CYP2C8
  Ki: 1.93 µM
CYP2C8; main text summary
  inhibitory effect on CYP2C8 in vitro (in words): weak to moderate inhibition
